Experimental data published in patent publication US20260191852A1, “COMBINATION OF SUBSTITUTED 2,4 DIAMINO-QUINOLINE COMPOUNDS AND MEK INHIBITORS FOR USE IN THE TREATMENT OF LIVER CANCERS” (GENFIT, priority 2022, published 2026).
Structures can show the parent of a compound that is named as a salt. Where two headings read alike, the source gives them in different places.

What was measured:
[1] = test system: intrahepatic cholangiocarcinoma cell line HuCCT1 (KRAS G12D)
Procedure: (§1) Cell culture: HuCCT1 cell line harboring KRAS G12D mutation (JCRB Cell Bank #JCRB0425) was maintained in RPMI medium (Dutscher #L0498-500) containing 1% penicillin streptomycin (Dutscher #P06-07100) and 10% fetal bovine serum (Dutscher #SV30160.03C) and were cultured at 37° C. with 5% CO2 in humidified cells incubator.
(§2) HuCCT1 cells were plated at 4.10^3 cells per well in Greiner Bio-one pClear® P96 well plates (Dutscher #655098) with 80 μL of culture media. […] Cell viability was assessed 72 hours post molecular treatment by CellTiter-Glo® luminescent cell viability assay (Promega #G7573) according to the manufacturer protocol and using an Infinity F200 Pro luminometer (Tecan). […] IC50 values were determined as the dose of compound required to reduce luminescent values to 50% of the reference signal obtained for untreated cell cultures. Raw data were analyzed using GraphPad Prism Software v9.4 (GraphPad Software, Inc. La Jolla, CA). For all experiments, analyzed data are shown as mean of triplicate and four independent experiments.

[2] = test system: intrahepatic cholangiocarcinoma cell line HuCCT1 (KRAS G12D); test: HuCCT1 cell viability assay (CellTiter-Glo), single compounds, 72 hours; conditions: for IC50: Homo sapiens, HuCCT-1, 72 h, read-out: Cell Viability assay IC50
Procedure: as §1, §2

[3] = test system: intrahepatic cholangiocarcinoma cell line HuCCT1 (KRAS G12D); test: Combination effect of binary drug-drug associations on HuCCT1 cell viability, Loewe additivity model (SynergyFinder); type: cell-based; conditions: growth inhibition of HuCCT1
Procedure: The HuCCT1 cell viability assay with binary drug-drug association was performed as described in example 1. The drug-drug binary associations of compounds 2-2+Trametinib and HCQ+Trametinib were tested in a checkerboard fashion in Greiner Bio-one pClear® 96-well plates (Dutscher #655098). The concentration ranges were selected nearby and surrounding the IC50 values of each individual compound. Compound 2-2 in combination with Trametinib was tested at 1.28 μM, 1.6 μM, 2.0 μM, 2.5 μM and 3.125 μM. HCQ [747-36-4] in combination with Trametinib was tested at 15 μM, 20 μM, 30 μM, 45 μM, 60 μM. […] The combination effects of both binary drug-drug association compound 2-2+Trametinib and HCQ+Trametinib were analyzed with two softwares: MacSynergy™ II (1) and SynergyFinder. […]
The combination effects of the drug-drug associations of compound 2-2+Trametinib (Table 2) and HCQ+Trametinib (Table 3) were evaluated according to the Loewe additivity model using SynergyFinder for their respective capacities to inhibit the growth of intra-hepatic cholangiocarcinoma cell line HuCCT1.
The HuCCT1 cell viability assay with binary drug-drug association was performed as described in example 1. […] The combination effects of both binary drug-drug association compound 2-2+Cobimetinib and HCQ+Cobimetinib were analyzed with two softwares: MacSynergy™ II (1) and SynergyFinder (2). […]

[4] = test system: intrahepatic cholangiocarcinoma cell line HuCCT1 (KRAS G12D); test: Combination effect of binary drug-drug associations on HuCCT1 cell viability, Bliss independence model (MacSynergy II); type: cell-based; conditions: growth inhibition of HuCCT1
Procedure: The HuCCT1 cell viability assay with binary drug-drug association was performed as described in example 1. The drug-drug binary associations of compounds 2-2+Trametinib and HCQ+Trametinib were tested in a checkerboard fashion in Greiner Bio-one pClear® 96-well plates (Dutscher #655098). The concentration ranges were selected nearby and surrounding the IC50 values of each individual compound. Compound 2-2 in combination with Trametinib was tested at 1.28 μM, 1.6 μM, 2.0 μM, 2.5 μM and 3.125 μM. HCQ [747-36-4] in combination with Trametinib was tested at 15 μM, 20 μM, 30 μM, 45 μM, 60 μM. Trametinib (Selleckchem #S2673, [871700-17-3]) in combination with compound 2-2 or in combination with HCQ was tested in both cases at 0.005 μM, 0.03 μM, 6.0 μM, 15 μM, 30 μM, 60 μM, 90 μM. The combination effects of both binary drug-drug association compound 2-2+Trametinib and HCQ+Trametinib were analyzed with two softwares: MacSynergy™ II (1) and SynergyFinder. (2) MacSynergy™ II was used to analyze the combination effect according to the Bliss independence model which assumes probabilistic statistical independence between the combined compounds.(3) The main assumption of the Bliss independence principle is that two or more combined drugs act independently from each other with distinct mode of action. SynergyFinder was used to analyze the combination effect according to the Loewe additivity model which is based on its principle of a sham drug-drug combination which assumes no interaction when a compound is combined with itself.(4)
The combination effects of the drug-drug associations of compound 2-2+Trametinib and hydroxychloroquine+Trametinib were evaluated according to the Bliss independence model using MacSynergy™ II for their respective capacities to inhibit the growth of intrahepatic cholangiocarcinoma cell line HuCCT1 (Table 4).
The HuCCT1 cell viability assay with binary drug-drug association was performed as described in example 1. The binary drug-drug associations of compounds 2-2+Cobimetinib and HCQ+Cobimetinib were tested in a checkerboard fashion in Greiner Bio-one pClear® 96-well plates (Dutscher #655098). The concentration ranges were selected nearby and surrounding the IC50 values of each individual compound. Compound 2-2 in combination with Cobimetinib was tested at 1.28 μM, 1.6 μM, 2.0 μM, 2.5 μM and 3.125 μM. HCQ [747-36-4] in combination with Cobimetinib was tested at 15 μM, 20 μM, 30 μM, 45 μM, 60 μM. Cobimetinib (Selleckchem #S8041, [934660-93-2]) in combination with compound 2-2 or in combination with HCQ was tested in both cases at 0.10 μM, 1.0 μM, 10 μM, 30 μM, 60 μM, 80 μM, 100 μM. The combination effects of both binary drug-drug association compound 2-2+Cobimetinib and HCQ+Cobimetinib were analyzed with two softwares: MacSynergy™ II (1) and SynergyFinder (2). […]
The combination effects of the binary drug-drug associations of compound 2-2+Cobimetinib and hydroxychloroquine+Cobimetinib were evaluated according to the Bliss independence model using MacSynergy™ II for their respective capacities to inhibit the growth of intrahepatic cholangiocarcinoma cell line HuCCT1 (Table 7).

Compound | cytotoxic activity against HuCCT1 [1] | IC50 [2] [µM] | combination effect when associated with Cobimetinib, Loewe model [3] | combination effect when associated with Cobimetinib, Bliss model [4] | combination effect when associated with Trametinib [4] | combination effect when associated with a MEK inhibitor (e.g., Trametinib, Cobimetinib), Bliss independence model [4] | cytotoxic activity against HuCCT1 ([2]; HuCCT1, 72 hours)
O=C(c1ccc(F)c(F)c1Nc1ccc(I)cc1F)N1CC(O)([C@@H]2CCCCN2)C1 [Cobimetinib] | dose-response cytotoxic activity | 1.2 ± 0.8 | – | – | – | – | –
CC(C)(C)NC1CCN(c2cc(NCc3ccc(Cl)cc3)nc3ccccc23)CC1 [Compound 2-2, 2-(4-chlorobenzylamino)-4-(4-tert-butylaminopiperidin-1-yl)-quinoline] | – | 2.2 ± 0.2 | overall additive effect | significant synergy combination effect | significant synergy combination effect | significant synergy combination effect | dose-response cytotoxic activity
CCN(CCO)CCCC(C)Nc1ccnc2cc(Cl)ccc12 (stereo not drawn) [Hydroxychloroquine, hydroxychloroquine sulfate] | dose-response cytotoxic activity | 27.2 ± 1.2 | overall additive effect | minor synergy without significant impact in vivo | only an additive effect | – | –
CC(=O)Nc1cccc(-n2c(=O)n(C3CC3)c(=O)c3c(Nc4ccc(I)cc4F)n(C)c(=O)c(C)c32)c1 [Trametinib] | dose-response cytotoxic activity | 0.31 ± 0.26 | – | – | – | – | –
